Data set [1] deals with Macrophage cell line. Kind of data set: Antiinflammatory activity in human PBMC-differentiated macrophages assessed as lowest concentration required to show at least 25% inhibition of LPS-induced TNFalpha production measured after 24 hrs by ELISA. It counts as functional. A general note: ELISA stands for enzyme-linked immunosorbent assay.
For data set [2], the system named is Enterococcus faecium. Kind of data set: Potentiation of methicillin-induced antibacterial activity against Enterococcus faecium ATCC 700221 assessed as minimum modulatory concentration up to 32 uM measured after 16 hrs in presence of MIC/4 methicillin. It counts as functional. Conditions: ATCC 700221, 16 h, read-out: MEC.
Data set [3] concerns Escherichia coli. Nature of the data set: Potentiation of geneticin-induced antibacterial activity against Escherichia coli ATCC 43894 assessed as minimum modulatory concentration up to 32 uM measured after 16 hrs in presence of MIC/4 geneticin. It counts as functional. Conditions: ATCC 43894, 16 h, read-out: MEC.
Data set [4] has as its system Macrophage cell line. Nature of the data set: Antiinflammatory activity in human PBMC-differentiated macrophages assessed as lowest concentration required to show at least 25% inhibition of LPS-induced IL-1beta production measured after 24 hrs by ELISA. The class given is functional.
The test system of a further data set is Streptococcus pyogenes. Kind of data set: Potentiation of methicillin-induced antibacterial activity against Streptococcus pyogenes ATCC 14289 assessed as minimum modulatory concentration up to 32 uM measured after 16 hrs in presence of MIC/4 methicillin. The class given is functional. Conditions: ATCC 14289, 16 h, read-out: MEC.
The subject of data set [5] is Macrophage cell line. Nature of the data set: Induction of IL-8 production in human PBMC-differentiated macrophages after 24 hrs by ELISA. It counts as cell-based.
Data set [6] concerns Pseudomonas aeruginosa. Nature of the data set: Toxicity in Pseudomonas aeruginosa ATCC BAA-2108 up to 32 uM measured after 16 hrs. Conditions: in vitro. The class given is organism-based.
Data set [7] deals with Macrophage cell line. Kind of data set: Cytotoxicity against human PBMC-differentiated macrophages treated for 24 hrs followed by compound washout and measured after 48 hrs by MTT assay. It counts as cell-based. A general note: Formazan colour is commonly taken as a measure of viable cells.
The subject of data set [8] is Escherichia coli. Nature of the data set: Potentiation of ciprofloxacin-induced antibacterial activity against Escherichia coli ATCC 43894 assessed as minimum modulatory concentration up to 32 uM measured after 16 hrs in presence of MIC/4 ciprofloxacin. It counts as functional. Conditions: ATCC 43894, 16 h, read-out: MEC.
In data set [9] the test system is Macrophage cell line. Nature of the data set: Antiinflammatory activity in human PBMC-differentiated macrophages assessed as lowest concentration required to show at least 25% inhibition of LPS-induced prostaglandin production measured after 24 hrs by ELISA. The class given is functional.
Data set [10] has as its system Macrophage cell line. Kind of data set: Induction of IL-1beta production in human PBMC-differentiated macrophages after 24 hrs by ELISA. The class given is cell-based.
In data set [11] the test system is Enterococcus faecium. Kind of data set: Potentiation of ciprofloxacin-induced antibacterial activity against Enterococcus faecium ATCC 700221 assessed as minimum modulatory concentration up to 32 uM measured after 16 hrs in presence of MIC/4 ciprofloxacin. The class given is functional. Conditions: ATCC 700221, 16 h, read-out: MEC.
Data set [12] deals with Pseudomonas aeruginosa. Kind of data set: Potentiation of ciprofloxacin-induced antibacterial activity against Pseudomonas aeruginosa ATCC BAA-2108 assessed as minimum modulatory concentration up to 32 uM measured after 16 hrs in presence of MIC/4 ciprofloxacin. Conditions: ATCC BAA-2108, 16 h, read-out: MEC. The class given is functional.
For data set [13], the system named is Macrophage cell line. Nature of the data set: Antiinflammatory activity in human PBMC-differentiated macrophages assessed as lowest concentration required to show at least 25% inhibition of LPS-induced IL-8 production measured after 24 hrs by ELISA. The class given is functional.
The subject of data set [14] is Macrophage cell line. Kind of data set: Antiinflammatory activity in human PBMC-differentiated macrophages assessed as inhibition of LPS-induced TNFalpha production at 0.01 to 10 uM measured after 24 hrs by ELISA. It counts as functional, cell-based.
Data set [15] deals with Macrophage cell line. Nature of the data set: Antiinflammatory activity in human PBMC-differentiated macrophages assessed as inhibition of LPS-induced IL-1beta production at 0.01 to 10 uM measured after 24 hrs by ELISA. It counts as functional, cell-based.

SMILES strings stand for the structures. The source made the active and inactive calls. No cut-off for these calls is given here. Some results are limits rather than exact numbers.

As a reminder, the IC50 is the concentration that inhibits the measured activity by half. Higher therefore signals a need for much substance. For the molecule `O=C(O)c1cc(-c2ccccc2)nc(-c2ccccc2)c1O`, the Activity was 10 µM in the data set with Macrophage cell line [1]; 10 µM with Macrophage cell line [4]; “Non-Toxic” in the data set with Macrophage cell line [5]; “Non-Toxic” with Pseudomonas aeruginosa [6]; 10 µM in the data set with Macrophage cell line [9]; “Non-Toxic” in the data set on Macrophage cell line [10]. The minimal effective concentration with Enterococcus faecium [2] is 2 µM; in the data set with Escherichia coli [3], more than 32 µM; with Streptococcus pyogenes it was 2 µM; in the data set on Escherichia coli [8], more than 32 µM; with Enterococcus faecium [11], more than 32 µM; in the data set on Pseudomonas aeruginosa [12], 8 µM. Moreover, the IC50 in the data set with Macrophage cell line [7] was determined as 81.2 µM.

In the case of `O=C(O)c1cnc2c(F)cc(F)cc2c1O`, the Activity in the data set on Macrophage cell line [1] is 1 µM; in the data set with Macrophage cell line [4], 1 µM; with Macrophage cell line [5], “Non-Toxic”; in the data set on Pseudomonas aeruginosa [6], “Non-Toxic”; with Macrophage cell line [13], 10 µM; in the data set with Macrophage cell line [9], 10 µM. The Activity result in the data set with Macrophage cell line [10] is recorded as “Non-Toxic”. Besides, the minimal effective concentration is 0.25 µM in the data set on Enterococcus faecium [2]; more than 32 µM with Escherichia coli [3]; 1 µM in the data set on Streptococcus pyogenes; more than 32 µM in the data set with Escherichia coli [8]; more than 32 µM in the data set on Enterococcus faecium [11]; 4 µM with Pseudomonas aeruginosa [12]. The molecule also came in with an IC50 in the data set on Macrophage cell line [7] of 96.5 µM.

Consider `O=C(O)c1cc(-c2ccc(F)cc2F)ccc1O` [DIFLUNISAL], for which the minimal effective concentration in the data set on Enterococcus faecium [2] is 16 µM; with Escherichia coli [3], more than 32 µM; with Streptococcus pyogenes, 16 µM; in the data set on Escherichia coli [8], more than 32 µM; in the data set on Enterococcus faecium [11], more than 32 µM; in the data set with Pseudomonas aeruginosa [12], more than 32 µM. In addition, the Activity result was “Non-Toxic” in the data set on Macrophage cell line [5], “Non-Toxic” in the data set on Pseudomonas aeruginosa [6], 0.1 µM with Macrophage cell line [9] and “Non-Toxic” in the data set with Macrophage cell line [10]. For the same molecule, it took 53 µM to reach half-maximal inhibition in the data set on Macrophage cell line [7] (IC50). Moreover, the inhibition result in the data set on Macrophage cell line [14] and with Macrophage cell line [15] was “inactive” each time.

Take `O=C(O)c1cc(O)c(-c2ccccc2)nc1-c1ccccc1`: the Activity is 10 µM in the data set on Macrophage cell line [1]; 10 µM with Macrophage cell line [4]; “Non-Toxic” in the data set with Macrophage cell line [5]; “Non-Toxic” in the data set with Pseudomonas aeruginosa [6]; 10 µM in the data set on Macrophage cell line [13]; “Non-Toxic” in the data set with Macrophage cell line [10]. In addition, the minimal effective concentration was 1 µM in the data set on Enterococcus faecium [2]; more than 32 µM with Escherichia coli [3]; 1 µM with Streptococcus pyogenes; more than 32 µM in the data set on Escherichia coli [8]; more than 32 µM with Enterococcus faecium [11]; 4 µM in the data set with Pseudomonas aeruginosa [12]. For the same molecule, in the data set on Macrophage cell line [7], the IC50 came to 92.1 µM.

`O=C(O)c1cc(-c2ccc(F)cc2F)ncc1O`: the Activity is 1 µM with Macrophage cell line [1]; 1 µM with Macrophage cell line [4]; “Non-Toxic” in the data set with Macrophage cell line [5]; “Non-Toxic” with Pseudomonas aeruginosa [6]; 1 µM in the data set on Macrophage cell line [13]; 10 µM with Macrophage cell line [9]. The Activity entry in the data set with Macrophage cell line [10] was “Non-Toxic”. Also, the minimal effective concentration in the data set on Enterococcus faecium [2] is 0.25 µM; in the data set with Escherichia coli [3], more than 32 µM; with Streptococcus pyogenes, 2 µM; with Escherichia coli [8], more than 32 µM; with Enterococcus faecium [11] it was more than 32 µM; in the data set with Pseudomonas aeruginosa [12], 4 µM. In the data set on Macrophage cell line [7], the half-maximal inhibitory concentration (IC50) was 97.3 µM.

These data come from ChEMBL document CHEMBL4257522, “Synthesis and preliminary anti-inflammatory and anti-bacterial evaluation of some diflunisal aza-analogs” (Medchemcomm, 2018).
